This note sets out measurements from patent publication US20260297060A1, “COMPOUNDS FOR THE DEGRADATION OF MUTANT BRAF” (C4 THERAPEUTICS, INC., priority 2023, published 2026).

Molecules are shown by their SMILES. Read-outs that look alike come from different tables or passages of the source.

Experiment [1] concerns the target T1, BRAF V600E (Homo sapiens, UniProt P15056+Q96SW2, V600E).
T1 construct: knock-in of the HiBiT tag to the endogenous BRAF V600E locus; host or cells: A375.10 (A375 clonal line, CRISPR HiBiT knock-in at the endogenous BRAF V600E locus)
Kind of experiment: BRAF V600E HiBiT Degradation Assay. The format is cell-based. The note with it: A375.10 cells, BRAF V600E; for HiBiT-Degradation A375.10 BRAF 2 hours Emax / HiBiT-Degradation A375.10 BRAF 6 hours Emax: residual protein remaining. The essentials:
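Endogenous HiBiT knock-in on BRAF V600E in A375 cells (clone A375.10); 11-point half-log series, top 10 μM, 2, 6 or 24 h at 37° C. Lytic HiBiT luminescence, background-subtracted, normalized to DMSO; 4-parameter fit gives DC50, Emax (residual protein) and IP (inflection point).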
Background: The HiBiT peptide binds its large partner to form an active luciferase.

Experiment [2] deals with A375-NRAS^Q61K cells. Kind of experiment: CTGlo Cell Viability Assay, A375-NRAS^Q61K (A375.11) cells, 96 hours. Format: cell-based, human. The following applies: A375.11 (A375-NRAS^Q61K) cells; for CTGlo A375.11 96 hours Emax: lowest % viability achieved. The essentials:
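Viability as CellTiter-Glo ATP luminescence after 96 h compound exposure at 37 °C; A375.11 (BRAF V600E/NRAS Q61K) cells at 250/well, top final concentration 10 μM in half-log steps. Signal was background-corrected and set relative to DMSO controls. A 4-parameter logistic fit gave GI50 (50% crossing) and Emax.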

[3] abbreviates: 2 hours, inflection point, read-out: HiBiT-Degradation A375.10 BRAF 2 hours IP.
Setting [4] is: 2 hours, read-out: HiBiT-Degradation A375.10 BRAF 2 hours DC50.
Where [5] appears, read: HiBiT, 24 hours, read-out: HiBiT-Degradation A375.10 BRAF 24 hours DC50.
[6] abbreviates: HiBiT, 24 hours, read-out: HiBiT-Degradation A375.10 BRAF 24 hours IP.
The mark [7] stands for this setting: 6 hours, inflection point, read-out: HiBiT-Degradation A375.10 BRAF 6 hours IP.
Setting [8] is: 6 hours, read-out: HiBiT-Degradation A375.10 BRAF 6 hours DC50.

T1 sequence (P15056 whole entry V600E): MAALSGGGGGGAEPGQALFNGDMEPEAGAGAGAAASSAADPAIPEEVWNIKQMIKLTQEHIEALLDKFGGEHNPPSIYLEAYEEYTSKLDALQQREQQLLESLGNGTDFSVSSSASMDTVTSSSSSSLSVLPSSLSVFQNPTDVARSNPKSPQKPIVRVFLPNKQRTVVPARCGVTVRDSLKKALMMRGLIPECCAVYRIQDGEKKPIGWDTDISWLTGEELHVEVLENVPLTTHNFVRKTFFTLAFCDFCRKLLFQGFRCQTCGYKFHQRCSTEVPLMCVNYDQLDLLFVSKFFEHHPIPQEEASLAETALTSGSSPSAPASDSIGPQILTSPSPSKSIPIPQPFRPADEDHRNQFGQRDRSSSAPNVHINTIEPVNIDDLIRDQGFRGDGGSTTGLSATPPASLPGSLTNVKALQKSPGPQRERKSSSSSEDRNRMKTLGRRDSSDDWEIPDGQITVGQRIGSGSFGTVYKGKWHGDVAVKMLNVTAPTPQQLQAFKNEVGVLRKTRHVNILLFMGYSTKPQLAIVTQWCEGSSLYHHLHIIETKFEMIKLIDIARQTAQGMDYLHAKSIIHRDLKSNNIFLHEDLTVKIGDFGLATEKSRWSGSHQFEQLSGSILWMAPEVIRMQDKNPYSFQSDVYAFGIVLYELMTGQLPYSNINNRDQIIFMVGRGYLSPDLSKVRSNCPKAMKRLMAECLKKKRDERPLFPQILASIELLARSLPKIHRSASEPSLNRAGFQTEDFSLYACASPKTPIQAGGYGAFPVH
T1 sequence (Q96SW2 whole entry): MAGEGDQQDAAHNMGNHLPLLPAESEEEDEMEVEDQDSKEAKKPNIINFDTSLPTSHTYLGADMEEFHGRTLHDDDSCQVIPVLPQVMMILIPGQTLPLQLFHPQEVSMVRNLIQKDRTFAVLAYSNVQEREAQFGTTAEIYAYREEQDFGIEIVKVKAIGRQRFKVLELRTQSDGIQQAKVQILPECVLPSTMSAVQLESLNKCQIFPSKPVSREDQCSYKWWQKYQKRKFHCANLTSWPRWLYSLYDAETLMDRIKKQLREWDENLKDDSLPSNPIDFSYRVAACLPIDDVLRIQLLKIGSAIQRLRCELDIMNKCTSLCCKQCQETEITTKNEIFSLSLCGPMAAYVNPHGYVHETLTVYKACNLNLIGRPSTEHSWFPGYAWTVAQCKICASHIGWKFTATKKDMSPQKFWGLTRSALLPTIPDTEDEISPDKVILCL
T1 sequence (Q16531 whole entry partner): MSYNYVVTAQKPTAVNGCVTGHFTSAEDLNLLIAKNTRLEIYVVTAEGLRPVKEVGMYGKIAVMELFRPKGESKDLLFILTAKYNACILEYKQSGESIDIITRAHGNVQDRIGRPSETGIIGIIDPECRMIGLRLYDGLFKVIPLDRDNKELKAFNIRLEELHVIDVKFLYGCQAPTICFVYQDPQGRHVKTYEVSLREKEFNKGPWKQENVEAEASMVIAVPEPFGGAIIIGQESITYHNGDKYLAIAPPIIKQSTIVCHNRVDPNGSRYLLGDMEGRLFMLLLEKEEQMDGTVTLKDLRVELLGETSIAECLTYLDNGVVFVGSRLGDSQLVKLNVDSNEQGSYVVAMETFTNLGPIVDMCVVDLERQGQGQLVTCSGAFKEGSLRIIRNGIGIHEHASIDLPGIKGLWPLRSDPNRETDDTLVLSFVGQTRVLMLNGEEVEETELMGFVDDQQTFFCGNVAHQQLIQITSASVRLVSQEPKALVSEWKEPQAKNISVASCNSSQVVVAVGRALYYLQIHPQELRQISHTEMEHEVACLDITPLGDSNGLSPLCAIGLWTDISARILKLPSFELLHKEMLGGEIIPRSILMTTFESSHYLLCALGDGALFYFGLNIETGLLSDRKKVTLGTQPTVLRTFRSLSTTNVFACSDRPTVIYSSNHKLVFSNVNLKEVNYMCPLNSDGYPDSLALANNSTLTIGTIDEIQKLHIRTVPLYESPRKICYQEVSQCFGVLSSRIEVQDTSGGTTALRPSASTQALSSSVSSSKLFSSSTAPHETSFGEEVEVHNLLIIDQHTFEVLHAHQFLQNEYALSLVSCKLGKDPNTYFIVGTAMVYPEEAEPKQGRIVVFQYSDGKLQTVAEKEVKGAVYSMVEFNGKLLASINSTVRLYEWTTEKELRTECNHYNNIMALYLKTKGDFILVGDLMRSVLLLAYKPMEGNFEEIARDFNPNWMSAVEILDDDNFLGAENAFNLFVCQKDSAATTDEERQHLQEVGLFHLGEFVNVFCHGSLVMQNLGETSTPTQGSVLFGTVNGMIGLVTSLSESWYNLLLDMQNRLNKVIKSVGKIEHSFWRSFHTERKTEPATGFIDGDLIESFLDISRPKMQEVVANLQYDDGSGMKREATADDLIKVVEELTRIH

On to `CCN(C)S(=O)(=O)Nc1ccc(F)c(Oc2ccc3ncc(C4CC5(C4)CN(C4CCC(c6cc7c(cc6F)c(N6CCC(=O)NC6=O)nn7C)CC4)C5)nc3c2)c1C#N` (single isomer, unassigned) [Compound 298, 7-[2-cyano-3-[[ethyl(methyl)sulfamoyl]amino]-6-fluoro-phenoxy]-2-[2-[4-[3-(2,4-dioxohexahydropyrimidin-1-yl)-5-fluoro-1-methyl-indazol-6-yl]cyclohexyl]-2-azaspiro[3.3]heptan-6-yl]quinoxaline], for which the DC50 in experiment [1] (setting [3]), in experiment [1] (setting [4]), in experiment [1] (setting [5]) and in experiment [1] (setting [6]) was less than 1000 nM in each case. Further, the “HiBiT-Degradation A375.10 BRAF 2 hours Emax” value in experiment [1] (2 hours) is listed as “*** (<=50%)”. Besides, in experiment [1] (HiBiT, 24 hours), the “HiBiT-Degradation A375.10 BRAF 24 hours Emax” value is “*** (<=50%)”. This compound returned a 50% growth inhibitory concentration (GI50) in experiment [2] of less than 1000 nM. For the same compound, in experiment [2], the “CTGlo A375.11 96 hours Emax” value was “*** (<=50%)”.
Consider `CCN(C)S(=O)(=O)Nc1ccc(F)c(Oc2ccc3ncn([C@@H]4COC5(C4)CN(C4CCC(c6cc7c(cc6F)c(N6CCC(=O)NC6=O)nn7C)CC4)C5)c(=O)c3c2)c1C#N` (single isomer, unassigned) [Compound 238], for which the DC50 in experiment [1] (setting [3]), in experiment [1] (setting [4]), in experiment [1] (setting [5]) and in experiment [1] (setting [6]) was less than 1000 nM throughout. Also, the “HiBiT-Degradation A375.10 BRAF 2 hours Emax” value in experiment [1] (2 hours) was “*** (<=50%)”. Moreover, the maximal effect (Emax) in experiment [1] (HiBiT, 24 hours, read-out: HiBiT-Degradation A375.10 BRAF 24 hours Emax) was less than 50%. The same compound returned a 50% growth inhibitory concentration (GI50) in experiment [2] of less than 1000 nM. Further, the “CTGlo A375.11 96 hours Emax” value in experiment [2] was “** (<90% and >50%)”.
With `Cn1nc(N2CCC(=O)NC2=O)c2cc(F)c(C3CCC(N4CCC5(CC4)CC(n4cnc6ccc(Oc7c(F)ccc(NS(=O)(=O)N8CC[C@@H](F)C8)c7C#N)cc6c4=O)C5)CC3)cc21` (single isomer, unassigned) [Compound 123], the DC50 in experiment [1] (setting [3]), in experiment [1] (setting [4]), in experiment [1] (setting [7]), in experiment [1] (setting [8]), in experiment [1] (setting [5]) and in experiment [1] (setting [6]) was less than 1000 nM in each case. Besides, the “HiBiT-Degradation A375.10 BRAF 2 hours Emax” value in experiment [1] (2 hours) is reported as “*** (<=50%)”. Also, the “HiBiT-Degradation A375.10 BRAF 6 hours Emax” value in experiment [1] (6 hours) was “*** (<=50%)”. Besides, the “HiBiT-Degradation A375.10 BRAF 24 hours Emax” value in experiment [1] (HiBiT, 24 hours) is listed as “*** (<=50%)”. The compound further gave a GI50 in experiment [2] of less than 1000 nM. Also, the “CTGlo A375.11 96 hours Emax” value in experiment [2] is “*** (<=50%)”.
`CCN(C)S(=O)(=O)Nc1ccc(F)c(Oc2ccc3ncn([C@H]4COC5(CCN(C6CCC(c7cc8c(cc7F)c(N7CCC(=O)NC7=O)nn8C)CC6O)CC5)C4)c(=O)c3c2)c1C#N` (single isomer, unassigned) [Compound 45]: the DC50 in experiment [1] (setting [3]), in experiment [1] (setting [4]), in experiment [1] (setting [7]), in experiment [1] (setting [8]), in experiment [1] (setting [5]) and in experiment [1] (setting [6]) was less than 1000 nM each time. In addition, the “HiBiT-Degradation A375.10 BRAF 2 hours Emax” value in experiment [1] (2 hours) is recorded as “*** (<=50%)”. Besides, the “HiBiT-Degradation A375.10 BRAF 6 hours Emax” value in experiment [1] (6 hours) was “*** (<=50%)”. In experiment [1] (HiBiT, 24 hours), the “HiBiT-Degradation A375.10 BRAF 24 hours Emax” value is “*** (<=50%)”. For the same compound, the 50% growth inhibitory concentration (GI50) in experiment [2] is less than 1000 nM. Besides, the “CTGlo A375.11 96 hours Emax” value in experiment [2] is listed as “*** (<=50%)”.
On to `Cn1nc(N2CCC(=O)NC2=O)c2cc(F)c(C3CCC(N4CCC5(CC4)CC(c4cnc6ccc(Oc7c(F)ccc(NS(=O)(=O)C8CCCC8)c7C#N)cc6n4)C5)CC3)cc21` (single isomer, unassigned) [Compound 271, N-[2-cyano-3-[3-[7-[4-[3-(2,4-dioxohexahydropyrimidin-1-yl)-5-fluoro-1-methyl-indazol-6-yl]cyclohexyl]-7-azaspiro[3.5]nonan-2-yl]quinoxalin-6-yl]oxy-4-fluoro-phenyl]cyclopentanesulfonamide], for which, in experiment [1] (2 hours), the “HiBiT-Degradation A375.10 BRAF 2 hours Emax” value is “*** (<=50%)”. The DC50 in experiment [1] (read-out: HiBiT-Degradation A375.10 BRAF 2 hours DC50, 2 hours) is less than 1000 nM. The DC50 in experiment [1] (read-out: HiBiT-Degradation A375.10 BRAF 2 hours IP, 2 hours, inflection point) is less than 1000 nM. Besides, in experiment [2], the GI50 was less than 1000 nM and the “CTGlo A375.11 96 hours Emax” value is listed as “*** (<=50%)”.

Broadly, the GI50 is the concentration giving 50% growth inhibition. Read a high GI50 as lower sensitivity of the cells. Broadly, the Emax is the greatest response seen or fitted, relative to the assay's reference.
